{"source": "paper PMC12152147", "about": "“DDB1 engagement defines the selectivity of S656 analogs for cyclin K degradation over CDK inhibition” (EMBO Reports, 2025)", "key": {"OCI-AML5 cells": {"system": "OCI-AML5 cells", "test": "Cell cycle profile (Hoechst 33342 flow cytometry)", "type": "cell-based, H. sapiens", "details": "24 h", "experimental": "For cell cycle experiments, 500,000 cells in exponential growth phase were incubated in pre-warmed media containing 10 μg/mL Hoechst 33342 during 45 min in incubator (37 °C in 5% CO2). After wash, cells were resuspended in cold media and recorded on BD FACSCelesta cytometer at low flow rate and analyzed with FlowJo v10 (Tree Star)."}, "primary AML specimens": {"system": "primary AML specimens", "test": "Discovery screen: 6-day single-dose (1 μM) viability, CellTiterGlo", "type": "cell-based, human", "details": "6 days", "description": "As recently described, our group conducted a high-throughput screening (HTS) assay assessing the response of 56 primary AML specimens to a library of 10,000 compounds (Moison et al, [2024]). This diverse small molecule library encompassed compounds with a wide range of structural diversity (Bristol-Myers Squibb), including clinical-grade compounds. Primary AML specimens representing the biological diversity of the disease, along with normal hematopoietic cells (CD34^+ cord blood cells), were exposed to a 6-day single-dose compound treatment (1 μM) and viability was assessed using the CellTiterGlow luminescent assay (Appendix Fig. S1A–C). A profile of inhibition—or fingerprint—was generated for each small molecule across the 56 primary AML specimens tested. […] Among these candidates, 12 were validated in cell lines and primary specimens and selected based on their chemotypes. […] Of note, highly sensitive AML specimens spanned various AML subgroups, underscoring the broad activity of S656 across genetically diverse AMLs (Fig. 1D).\nFreshly thawed primary AML specimens were used for chemical screens. […] Cell viability was evaluated after 6 days in culture using the CellTiterGlo assay according to the manufacturer’s instruction. Percentage of inhibition for dose response curves was calculated as 100 – (100 × (mean luminescence [compound]/mean luminescence [DMSO])). […]"}, "[1]": {"system": "OCI-AML5 and U937 cell lines", "test": "Synergistic interaction assay with THZ531 (Bliss score)", "type": "cell-based", "description": "3. It may be worthwhile to investigate whether the CDK12/13 inhibitor THZ531 could synergize with S656 or analogues like UOM-005636 that specifically degrade Cyclin K, in combination cytotoxicity assays, assessing selective suppression of AML viability over normal cells. Both […]\ninhibiting CDK12, and S656 / UOM-005636 by degrading Cyclin K. Similar synergistic effects were observed by Katharina et al., where THZ531 promoted prostate ca ncer cell sensitivity to androgen deprivation therapy [Frei, K et. al. Inhibition of the Cyclin K-CDK12 complex induces DNA damage and increases the effect of androgen deprivation therapy in prostate cancer. Int J […]\nIndeed, THZ531 is a covalent CDK12/13 inhibitor that specifically binds to the kinase pocket of […]\npocket of CDK12, and that pre-incubation with THZ531 competes with S656-mediated Cyclin K degradation (see Figure 5E).\nWe performed a synergistic interaction assay between THZ531 and S656 or UOM-005636 in OCI-AML5 and U937 cell lines (see below). […]\ninteractions between THZ531 and our cyclin K degrader molecules. This is likely due to both drugs competing for the same binding site, rather than acting through complementary pathways. […]"}, "[2]": {"system": "BRCA2, ATR and BLM mRNA expression", "test": "qPCR of DDR transcripts in OCI-AML5", "type": "cell-based, H. sapiens", "details": "OCI-AML5, 4 h; S656 5 μM, THZ531 200 nM; normalized to HPRT, DMSO = 1", "experimental": "RNA was harvested in Trizol (ThermoFisher) and isolated according to manufacturer’s protocol and reverse transcribed using MMLV reverse transcriptase and random primers (ThermoFisher). Quantitative PCR was performed using validated assays designed for the Universal Probe Library (Roche) on the Viia7 (Applied Biosystems). qPCR primer sequences are available in Table EV2. Relative quantity of target is normalized to HPRT and compared to normalized expression of control cells."}}, "note": "“And” between values parts separate entries of the source, which are not always exact repeats. Identical values can stand only once.", "data": [{"smiles": "CN(C)c1ccc(CC(=O)Nc2ncc(SCc3cccnc3)s2)cc1", "note": "[S656]", "values": [{"measurement": "percentage of cells in G1", "setting": "OCI-AML5 cells; S656 1uM", "result": "50.8% and 63.1% and 58.6%"}, {"measurement": "percentage of cells in G2/M", "setting": "OCI-AML5 cells; S656 1uM", "result": "26.6% and 23.9% and 22.5%"}, {"measurement": "percentage of cells in S", "setting": "OCI-AML5 cells; S656 1uM", "result": "21.5% and 12.1% and 18.1%"}, {"measurement": "percentage of cells in G1", "setting": "OCI-AML5 cells; S656 3uM", "result": "69.1% and 60.5% and 65.7%"}, {"measurement": "percentage of cells in G2/M", "setting": "OCI-AML5 cells; S656 3uM", "result": "17.7% and 29.1% and 24.3%"}, {"measurement": "percentage of cells in S", "setting": "OCI-AML5 cells; S656 3uM", "result": "12% and 9.62% and 8.06%"}, {"measurement": "inhibition at 1 µM", "setting": "primary AML specimens; Homo sapiens, 144 h, 1 μM, in 10 out of 56 primary AML specimens, read-out: growth inhibition", "result": "> 70", "unit": "%"}, {"measurement": "% inhibition S656 at 1uM", "setting": "primary AML specimens; discovery screen, one primary AML specimen per row (Patient ID in c0)", "result": 0.00, "unit": "%"}, {"measurement": "synergistic interaction with THZ531 (Bliss score)", "setting": "[1]", "result": "moderate to very low synergistic"}, {"measurement": "ATR mRNA", "setting": "[2]", "result": "0.3 and 0.2683 and 0.3666"}, {"measurement": "BRCA2 mRNA", "setting": "[2]", "result": "0.127 and 0.1345 and 0.2247"}]}]}
